The NIST ThermoML archive (doi:10.1021/je400803f)
± gives the expanded uncertainty stated by the source.

Assay: xn = mol fraction of the nth substance listed
Conditions: 101 kPa, Liquid, Vibrating tube method

CCCC[N+]1(C)CCCC1.FC(F)(F)C(F)(F)[P-](F)(F)(F)(C(F)(F)C(F)(F)F)C(F)(F)C(F)(F)F + CN(C)C=O
mass density [kg/m3]
Conditions | 293.15 K | 298.15 K | 303.15 K | 308.15 K | 313.15 K | 318.15 K | 323.15 K
x1 = 0.0165 | 993.84 ± 0.33 | 988.9 ± 0.33 | 983.96 ± 0.33 | 978.95 ± 0.33 | 973.88 ± 0.33 | 968.76 ± 0.33 | 963.52 ± 0.33
x1 = 0.0379 | 1045.32 ± 0.35 | 1040.31 ± 0.34 | 1035.26 ± 0.34 | 1030.17 ± 0.34 | 1024.98 ± 0.33 | 1019.76 ± 0.33 | 1014.46 ± 0.33
x1 = 0.0636 | 1098.24 ± 0.36 | 1093.11 ± 0.36 | 1087.96 ± 0.35 | 1082.78 ± 0.35 | 1077.52 ± 0.34 | 1072.2 ± 0.34 | 1066.82 ± 0.34
x1 = 0.0999 | 1160.65 ± 0.39 | 1155.44 ± 0.39 | 1150.21 ± 0.38 | 1144.9 ± 0.38 | 1139.55 ± 0.38 | 1134.13 ± 0.37 | 1128.66 ± 0.37
x1 = 0.1381 | 1214.48 ± 0.42 | 1209.17 ± 0.42 | 1203.86 ± 0.42 | 1198.5 ± 0.41 | 1193.09 ± 0.41 | 1187.58 ± 0.4 | 1182.02 ± 0.4
x1 = 0.2002 | 1284.15 ± 0.48 | 1278.78 ± 0.47 | 1273.37 ± 0.47 | 1267.93 ± 0.46 | 1262.4 ± 0.46 | 1256.85 ± 0.45 | 1251.25 ± 0.45
x1 = 0.3038 | 1367.83 ± 0.55 | 1362.38 ± 0.54 | 1356.95 ± 0.54 | 1351.43 ± 0.53 | 1345.95 ± 0.53 | 1340.13 ± 0.52 | 1334.59 ± 0.52
x1 = 0.3944 | 1420.86 ± 0.6 | 1415.36 ± 0.59 | 1409.86 ± 0.59 | 1404.36 ± 0.58 | 1398.78 ± 0.58 | 1393.18 ± 0.57 | 1387.5 ± 0.57
x1 = 0.4946 | 1465.66 ± 0.64 | 1460.2 ± 0.63 | 1454.71 ± 0.63 | 1449.18 ± 0.62 | 1443.63 ± 0.62 | 1438.04 ± 0.61 | 1432.36 ± 0.61
x1 = 0.5997 | 1502.25 ± 0.67 | 1496.77 ± 0.67 | 1491.29 ± 0.66 | 1485.78 ± 0.66 | 1480.25 ± 0.65 | 1474.66 ± 0.65 | 1469.03 ± 0.64
x1 = 0.6972 | 1529.32 ± 0.7 | 1523.85 ± 0.7 | 1518.39 ± 0.69 | 1512.87 ± 0.68 | 1507.34 ± 0.68 | 1501.77 ± 0.67 | 1496.17 ± 0.67
x1 = 0.7887 | 1550.58 ± 0.72 | 1545.07 ± 0.72 | 1539.56 ± 0.71 | 1534.11 ± 0.71 | 1528.58 ± 0.7 | 1523.04 ± 0.69 | 1517.43 ± 0.69
x1 = 0.8853 | 1569.6 ± 0.74 | 1564.14 ± 0.74 | 1558.67 ± 0.73 | 1553.16 ± 0.72 | 1547.65 ± 0.72 | 1542.09 ± 0.71 | 1536.51 ± 0.71
